Data from patent US20240239767A1 (AstraZeneca AB, priority 2022, published 2024).

Assays:
PCSK9 = PCSK9 (Homo sapiens, UniProt Q8NBP7, G670E/V474I); experiment: biochemical
[1] = molecular target: GSK3b (Glycogen synthase kinase-3 beta) (Homo sapiens, UniProt P49841); experiment: Assay 6 - GSK3b assay (ThermoFisher, FRET Z-Lyte); type: biochemical; conditions: geometric mean; ATP Conc: 10.000 μM; read-out: Assay 6 (GSK3B FRET-Z-Lyte CR) GMean IC50 (μM) ATP Conc: 10.000
Method: This assay measures the activity of the compounds at GSK3b (Glycogen synthase kinase-3 beta).
The test compounds were screened in 1% DMSO (final) in the well. For 10-point titrations, 3-fold serial dilutions are conducted from the starting concentration of 10 μM.
• Bar-coded Corning, low volume NBS, black 384-well plate • 1. 2.5 μL—4× Test Compound or 100 nL 100× plus 2.4 μL kinase buffer • 2. 5 μL—2× Peptide/Kinase Mixture • 3. 2.5 μL—4× ATP Solution • 4. 30-second plate shake • 5. 60-minute Kinase Reaction incubation at room temperature • 6. 5 μL—Development Reagent Solution • 7. 30-second plate shake • 8. 60-minute Development Reaction incubation at room temperature • 9. Read on fluorescence plate reader and analyse the data
In step 2, the 2× GSK3β (GSK3 beta)/Ser/Thr (Glycogen synthase kinase-3 beta/Serine/Threonine) 09 mixture is prepared in 50 mM HEPES (4-(2-hydroxyethyl)-1-piperazineethanesulfonic acid) pH 7.5, 0.01% BRIJ-35, 10 mM MgCl2, 1 mM EGTA (egtazic acid). The final 10 μL Kinase Reaction consists of 0.22-0.92 ng GSK3β (GSK3 beta) and 2 μM Ser/Thr 09 in 50 mM HEPES pH 7.5, 0.01% BRIJ-35, 10 mM MgCl2, 1 mM EGTA.
In step 3 the ATP Solution is diluted to a 4× working concentration in Kinase Buffer (50 mM HEPES pH 7.5, 0.01% BRIJ-35, 10 mM MgCl2, 1 mM EGTA).
In Step 6 the Development Reagent is diluted 1:512 in Development Buffer (10× Novel PKC Lipid Mix: 2 mg/mL Phosphatidyl Serine, 0.2 mg/mL DAG in 20 mM HEPES, pH 7.4, 0.3% CHAPS).
SelectScreen® Kinase Profiling Service uses XLfit from IDBS. The dose response curve is curve fit to model number 205 (sigmoidal dose-response model).

[2] = molecular target: T1, potassium ion channel hERG (human Ether-á-go-go-Related Gene) (Homo sapiens, UniProt Q12809); experiment: Assay 5 - hERG assay (SyncroPatch 384PE patch clamp, CHO cells); type: cell-based; conditions: geometric mean, CHO cells over-expressing hERG, read-out: Assay 5 (hERG Hu CHO IF EPh CR-Syncro) GMean IC50
T1 construct: expressed in transfected cells; host or cells: Chinese hamster ovary K1 (CHO)
T1 sequence (Q12809 whole entry): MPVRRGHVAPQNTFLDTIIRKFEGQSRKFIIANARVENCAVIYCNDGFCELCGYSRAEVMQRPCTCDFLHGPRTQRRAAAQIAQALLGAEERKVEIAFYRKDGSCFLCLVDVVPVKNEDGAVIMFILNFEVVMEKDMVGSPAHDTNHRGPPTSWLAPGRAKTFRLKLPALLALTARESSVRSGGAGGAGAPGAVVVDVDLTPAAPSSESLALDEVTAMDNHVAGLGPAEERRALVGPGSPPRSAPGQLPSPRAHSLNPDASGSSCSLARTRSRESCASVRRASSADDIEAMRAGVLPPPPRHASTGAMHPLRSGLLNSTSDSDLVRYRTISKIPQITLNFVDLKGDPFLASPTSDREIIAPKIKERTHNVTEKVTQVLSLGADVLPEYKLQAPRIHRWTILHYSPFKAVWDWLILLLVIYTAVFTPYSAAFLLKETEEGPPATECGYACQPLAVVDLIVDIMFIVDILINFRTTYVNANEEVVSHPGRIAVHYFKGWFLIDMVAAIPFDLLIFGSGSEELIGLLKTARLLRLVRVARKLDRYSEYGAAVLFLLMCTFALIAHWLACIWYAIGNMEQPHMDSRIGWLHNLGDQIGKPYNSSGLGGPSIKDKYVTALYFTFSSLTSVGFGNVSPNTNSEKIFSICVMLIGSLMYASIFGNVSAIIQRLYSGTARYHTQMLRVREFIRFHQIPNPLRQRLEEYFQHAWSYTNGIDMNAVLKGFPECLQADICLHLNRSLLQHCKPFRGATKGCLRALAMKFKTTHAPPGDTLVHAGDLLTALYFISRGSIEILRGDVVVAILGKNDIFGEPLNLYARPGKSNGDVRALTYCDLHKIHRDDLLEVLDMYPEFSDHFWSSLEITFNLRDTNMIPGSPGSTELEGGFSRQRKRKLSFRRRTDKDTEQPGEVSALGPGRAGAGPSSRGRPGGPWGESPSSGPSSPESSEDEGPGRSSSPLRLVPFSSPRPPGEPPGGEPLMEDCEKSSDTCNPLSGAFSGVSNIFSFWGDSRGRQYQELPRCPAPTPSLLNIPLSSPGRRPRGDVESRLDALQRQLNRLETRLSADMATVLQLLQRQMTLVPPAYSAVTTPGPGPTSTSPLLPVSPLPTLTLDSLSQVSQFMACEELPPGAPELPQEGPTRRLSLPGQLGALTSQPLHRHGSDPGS
Method: Assay 5—hERG Assay (Human Ether-á-go-go-Related Gene)
This assay (human Ether-á-go-go-Related Gene) measures activity of the compounds at the potassium ion channel hERG (human Ether-á-go-go-Related Gene).
Experiments were performed on the SyncroPatch 384PE high throughput patch clamp platform at room temperature and medium resistance chips with 4 patch holes per site. Chinese hamster ovary K1 (CHO) cell lines over-expressing the ion channel of choice (hERG) were used in assay-ready format and kept in liquid nitrogen or were used from live culture. Cells were either thawed and diluted in HBSS or were detached from flasks and resuspended in HBSS. HBSS comprised 140 mM NaCl, 4 mM KCl, 10 mM HEPES and 5 mM Glucose (pH 7.4). The internal patch clamp solution was KF 120 mM, KCl 20 mM, HEPES 10 mM, EGTA 10 mM, and 25 μM Escin (pH 7.2). After the sealing process was complete, the external solution was exchanged for external patch clamp solution comprising NaCl 80 mM, KCl 4 mM, HEPES 10 mM, CaCl2 2 mM, MgCl2 1 mM, glucose 5 mM, and NMDG 60 mM (pH 7.4). All solutions were stored at room temperature, except Escin, which was stored at 4° C. All test compounds were dispensed in greiner-bio 384 well plates and tested in a 6 point cumulative assay (final DMSO concentration 0.33%). Only wells that passed previously agreed acceptance criteria for this platform were used in this analysis (30 MegaOhm seal resistance, Z prime>0.4 and current size>0.2 nA).

GSK3b (Glycogen synthase kinase-3 beta), sequence (P49841 whole entry): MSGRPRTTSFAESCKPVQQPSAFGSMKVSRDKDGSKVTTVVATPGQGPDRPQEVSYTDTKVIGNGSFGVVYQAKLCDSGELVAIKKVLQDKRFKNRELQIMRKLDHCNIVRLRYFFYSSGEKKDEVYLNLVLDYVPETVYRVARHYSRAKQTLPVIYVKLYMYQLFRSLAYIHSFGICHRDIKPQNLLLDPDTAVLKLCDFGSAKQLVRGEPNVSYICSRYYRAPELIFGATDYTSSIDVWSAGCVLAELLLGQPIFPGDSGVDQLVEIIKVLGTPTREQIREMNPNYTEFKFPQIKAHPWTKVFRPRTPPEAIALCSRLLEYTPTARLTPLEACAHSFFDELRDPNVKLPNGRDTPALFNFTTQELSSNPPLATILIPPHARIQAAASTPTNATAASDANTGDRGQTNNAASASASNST
PCSK9, sequence (Q8NBP7 with tags, fused parts or gaps V474I/G670E): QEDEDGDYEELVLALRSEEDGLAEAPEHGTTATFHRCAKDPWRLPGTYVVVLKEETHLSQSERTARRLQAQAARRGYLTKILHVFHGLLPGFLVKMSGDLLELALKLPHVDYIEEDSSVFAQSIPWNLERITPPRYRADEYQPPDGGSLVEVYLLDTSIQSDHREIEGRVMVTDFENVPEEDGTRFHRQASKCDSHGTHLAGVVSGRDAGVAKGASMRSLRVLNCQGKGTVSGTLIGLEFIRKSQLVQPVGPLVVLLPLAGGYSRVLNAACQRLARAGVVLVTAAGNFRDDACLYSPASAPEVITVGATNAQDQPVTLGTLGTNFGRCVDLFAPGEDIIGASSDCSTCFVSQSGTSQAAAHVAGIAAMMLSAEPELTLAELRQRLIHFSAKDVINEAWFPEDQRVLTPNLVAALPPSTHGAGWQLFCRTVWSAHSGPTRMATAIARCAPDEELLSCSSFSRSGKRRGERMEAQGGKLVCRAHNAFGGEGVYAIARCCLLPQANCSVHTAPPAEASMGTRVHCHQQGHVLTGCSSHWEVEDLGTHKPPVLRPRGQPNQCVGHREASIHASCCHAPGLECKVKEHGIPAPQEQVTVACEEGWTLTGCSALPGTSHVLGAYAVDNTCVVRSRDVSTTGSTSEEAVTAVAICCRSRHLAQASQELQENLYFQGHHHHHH

Work on `O=c1ccccn1-c1ccc(N[C@H]2CC[C@H](Nc3nc4cc(C5CC5)cnc4[nH]3)C2)nc1` [Example 55, 6′-(((1S,3S)-3-((6-Cyclopropyl-3H-imidazo[4,5-b]pyridin-2-yl)amino)cyclopentyl)amino)-2H-[1,3′-bipyridin]-2-one] yielded an IC50 (PCSK9) of 0.0026 µM, an IC50 [1] of 1.77 µM and an IC50 [2] of over 40 µM.
Molecule `Cn1c(=O)n(-c2ccc(N[C@H]3CC[C@H](Nc4nc5cccnc5[nH]4)C3)nc2)c2ncccc21` [Example 45, 3-(6-(((1S,3S)-3-((3H-Imidazo[4,5-b]pyridin-2-yl)amino)cyclopentyl)amino)pyridin-3-yl)-1-methyl-1,3-dihydro-2H-imidazo[4,5-b]pyridin-2-one] has an IC50 [1] of over 10 µM and an IC50 [2] of over 40 µM.
With `Fc1cccc(OC(F)(F)F)c1-c1ccc(N[C@H]2CC[C@H](Nc3nc4cccnc4[nH]3)C2)nc1` [Example 70, (1S,3S)—N^1-(5-(2-Fluoro-6-(trifluoromethoxy)phenyl)pyridin-2-yl)-N^3-(3H-imidazo[4,5-b]pyridin-2-yl)cyclopentane-1,3-diamine] the IC50 (PCSK9) was 0.0244 µM and the IC50 [1] was over 10 µM.
`COc1ccccc1-c1ccc(N[C@H]2CC[C@H](Nc3nc4cccnc4[nH]3)C2)nc1` [Example 66, (1S,3S)—N^1-(3H-Imidazo[4,5-b]pyridin-2-yl)-N^3-(5-(2-methoxyphenyl)pyridin-2-yl)cyclopentane-1,3-diamine] gave an IC50 (PCSK9) of 0.166 µM, an IC50 [1] of over 10 µM and an IC50 [2] of 1.94 µM.
`O=C1CN(c2ccc(N[C@H]3CC[C@H](Nc4nc5cccnc5[nH]4)C3)nc2)C(=O)N1` [Example 65, 1-(6-(((1S,3S)-3-((3H-Imidazo[4,5-b]pyridin-2-yl)amino)cyclopentyl)amino)pyridin-3-yl)imidazolidine-2,4-dione] was tested, and the IC50 (PCSK9) was 0.0078 µM, the IC50 [1] was 8.19 µM and the IC50 [2] was over 40 µM.
For `Fc1cccc(OC(F)F)c1-c1ccc(N[C@H]2CC[C@H](Nc3nc4cccnc4[nH]3)C2)nc1` [Example 32, (1S,3S)—N^1-(5-(2-(Difluoromethoxy)-6-fluorophenyl)pyridin-2-yl)-N^3-(3H-imidazo[4,5-b]pyridin-2-yl)cyclopentane-1,3-diamine], the IC50 (PCSK9) was 0.021 µM, the IC50 [1] was over 10 µM and the IC50 [2] was 2.22 µM.
`O=c1ccccn1-c1ccc(N[C@H]2CC[C@H](Nc3nc4cc(CO)ccc4s3)C2)nc1` [Example 84, 6′-(((1S,3S)-3-((5-(Hydroxymethyl)benzo[d]thiazol-2-yl)amino)cyclopentyl)amino)-2H-[1,3′-bipyridin]-2-one] gave an IC50 (PCSK9) of 0.239 µM, an IC50 [1] of over 10 µM and an IC50 [2] of over 40.1 µM.
`N#Cc1ccc2sc(N[C@H]3CC[C@H](Nc4ccc(-n5ccccc5=O)cn4)C3)nc2c1` [Example 9, 2-(((1S,3S)-3-((2-Oxo-2H-[1,3′-bipyridin]-6′-yl)amino)cyclopentyl)amino)benzo[d]thiazole-5-carbonitrile] was tested, and the IC50 (PCSK9) was 0.0179 µM, the IC50 [1] was 1.51 µM and the IC50 [2] was 3.56 µM.
Molecule `O=c1cccnn1-c1cnc(N[C@H]2CC[C@H](Nc3nc4cccnc4[nH]3)C2)nc1` [Example 31, 2-(2-(((1S,3S)-3-((3H-Imidazo[4,5-b]pyridin-2-yl)amino)cyclopentyl)amino)pyrimidin-5-yl)pyridazin-3(2H)-one] has an IC50 (PCSK9) of 0.0251 µM, an IC50 [1] of over 10 µM and an IC50 [2] of over 40.1 µM.
With `Cc1ccc2nc(N[C@H]3CC[C@H](Nc4ccc(-n5ccccc5=O)cn4)C3)sc2c1` [Example 8, 6′-(((1S,3S)-3-((6-Methylbenzo[d]thiazol-2-yl)amino)cyclopentyl)amino)-2H-[1,3′-bipyridin]-2-one] the IC50 (PCSK9) was 2.08 µM, the IC50 [1] was over 10 µM and the IC50 [2] was 6.32 µM.
Molecule `O=c1ccccn1-c1ccc(N[C@H]2CC[C@H](Nc3nc4ccccc4s3)C2)nc1` [Example 7, 6′-(((1S,3S)-3-(Benzo[d]thiazol-2-ylamino)cyclopentyl)amino)-2H-[1,3′-bipyridin]-2-one] has an IC50 (PCSK9) of 0.324 µM, an IC50 [1] of over 10 µM and an IC50 [2] of 12.6 µM.
Molecule `Fc1ccccc1-c1ccc(N[C@H]2CC[C@H](Nc3nc4cccnc4[nH]3)C2)nc1` [Example 69, (1S,3S)—N^1-(5-(2-Fluorophenyl)pyridin-2-yl)-N^3-(3H-imidazo[4,5-b]pyridin-2-yl)cyclopentane-1,3-diamine] has an IC50 (PCSK9) of 0.083 µM, an IC50 [1] of over 10 µM and an IC50 [2] of 1.17 µM.
For `O=c1ccccn1-c1ccc(N[C@H]2CC[C@H](Nc3nc4cc(CO)cnc4s3)C2)nc1` [Compound 88], the IC50 (PCSK9) was 0.0099 µM, the IC50 [1] was over 10 µM and the IC50 [2] was over 40.1 µM.
Work on `O=c1ccccn1-c1ccc(N[C@H]2CC[C@H](Nc3nc4ccccc4o3)C2)nc1` [Example 1, 6′-(((1S,3S)-3-(Benzo[d]oxazol-2-ylamino)cyclopentyl)amino)-2H-[1,3′-bipyridin]-2-one] yielded an IC50 (PCSK9) of 0.0343 µM, an IC50 [1] of over 10 µM and an IC50 [2] of over 40 µM.
`O=c1ccccn1-c1ccc(N[C@H]2CC[C@H](Nc3nc4cccnc4[nH]3)C2)cc1` [Example 74, 1-(4-(((1S,3S)-3-((3H-Imidazo[4,5-b]pyridin-2-yl)amino)cyclopentyl)amino)phenyl)pyridin-2(1H)-one] gave an IC50 (PCSK9) of 0.173 µM, an IC50 [1] of over 10 µM and an IC50 [2] of over 40 µM.
In the case of `N#Cc1ccc(=O)n(-c2ccc(N[C@H]3CC[C@H](Nc4nc5cccnc5o4)C3)nc2)c1` [Example 17, 6′-(((1S,3S)-3-(Oxazolo[5,4-b]pyridin-2-ylamino)cyclopentyl)amino)-2-oxo-2H-[1,3′-bipyridine]-5-carbonitrile], the IC50 (PCSK9) is reported as 0.0305 µM, the IC50 [1] is reported as over 10 µM and the IC50 [2] is reported as over 40.1 µM.
In the case of `O=c1ccccn1-c1ccc(N[C@H]2CC[C@H](Nc3nc4ncccc4o3)C2)nc1` [Compound 89, 6′-(((1S,3S)-3-(Oxazolo[4,5-b]pyridin-2-ylamino)cyclopentyl)amino)-2H-[1,3′-bipyridin]-2-one], the IC50 (PCSK9) is reported as 0.259 µM, the IC50 [1] is reported as over 10 µM and the IC50 [2] is reported as over 40.1 µM.
Work on `Cn1cccc(-c2cnc(N[C@H]3CC[C@H](Nc4nc5cccnc5[nH]4)C3)cn2)c1=O` [Example 75, 3-(5-(((1S,3S)-3-((3H-Imidazo[4,5-b]pyridin-2-yl)amino)cyclopentyl)amino)pyrazin-2-yl)-1-methylpyridin-2(1H)-one] yielded an IC50 (PCSK9) of 0.0168 µM, an IC50 [1] of over 10 µM and an IC50 [2] of over 40 µM.
For `Fc1cccc(F)c1-c1ccc(N[C@H]2CC[C@H](Nc3nc4cccnc4[nH]3)C2)nc1` [Example 68, (1S,3S)—N^1-(5-(2,6-Difluorophenyl)pyridin-2-yl)-N^3-(3H-imidazo[4,5-b]pyridin-2-yl)cyclopentane-1,3-diamine], the IC50 [1] was over 10 µM and the IC50 [2] was 6.55 µM.
In the case of `CP(C)(=O)c1cnc2[nH]c(N[C@H]3CC[C@H](Nc4ccc(-n5ccccc5=O)cn4)C3)nc2c1` [Example 58, 6′-(((1S,3S)-3-((6-(Dimethylphosphoryl)-3H-imidazo[4,5-b]pyridin-2-yl)amino)cyclopentyl)amino)-2H-[1,3′-bipyridin]-2-one], the IC50 (PCSK9) is reported as 0.22 µM and the IC50 [2] is reported as over 40 µM.
`O=c1ccc2ccccc2n1-c1ccc(N[C@H]2CC[C@H](Nc3nc4cccnc4[nH]3)C2)nc1` [Example 33, 1-(6-(((1S,3S)-3-((3H-Imidazo[4,5-b]pyridin-2-yl)amino)cyclopentyl)amino)pyridin-3-yl)quinolin-2(1H)-one] was tested, and the IC50 [1] was over 10 µM and the IC50 [2] was over 40 µM.
For `O=c1ccccn1-c1ccc(N[C@H]2CC[C@H](Nc3nc4ccc(OC(F)F)cc4o3)C2)nc1` [Example 85, 6′-(((1S,3S)-3-((6-(Difluoromethoxy)benzo[d]oxazol-2-yl)amino)cyclopentyl)amino)-2H-[1,3′-bipyridin]-2-one], the IC50 (PCSK9) was 0.0146 µM.
